# Experimental data published in paper PMC3602205 (Chemico-biological interactions, 2013).
# Where a chain is given by its changes, count along the chain named.
# How the values were obtained:
# [1] = biological target: T1, Ct-FDH (carboxy-terminal ALDH domain of 10-formyltetrahydrofolate dehydrogenase, Aldh1l1) (Rattus norvegicus, UniProt P28037, C707S); assay: quenching of tryptophan fluorescence; assay type: binding
# T1 sequence (P28037 400-902 C707S): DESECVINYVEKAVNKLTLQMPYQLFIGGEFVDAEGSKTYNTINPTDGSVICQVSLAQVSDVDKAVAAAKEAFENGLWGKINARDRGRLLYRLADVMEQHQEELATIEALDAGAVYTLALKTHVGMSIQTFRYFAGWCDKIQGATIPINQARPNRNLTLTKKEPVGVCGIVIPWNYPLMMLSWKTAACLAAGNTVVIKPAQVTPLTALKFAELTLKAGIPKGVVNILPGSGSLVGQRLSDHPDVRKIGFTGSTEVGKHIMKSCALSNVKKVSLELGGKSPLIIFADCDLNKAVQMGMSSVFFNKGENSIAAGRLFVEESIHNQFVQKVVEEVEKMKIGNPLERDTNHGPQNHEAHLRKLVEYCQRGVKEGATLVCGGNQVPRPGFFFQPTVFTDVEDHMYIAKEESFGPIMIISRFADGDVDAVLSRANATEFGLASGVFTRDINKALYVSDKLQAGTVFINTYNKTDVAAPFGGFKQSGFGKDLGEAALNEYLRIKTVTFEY
# [2] = biological target: T2, Ct-FDH (carboxy-terminal ALDH domain of 10-formyltetrahydrofolate dehydrogenase, Aldh1l1) (Rattus norvegicus, UniProt P28037); assay: quenching of tryptophan fluorescence; assay type: binding
# T2 sequence (P28037 400-902): T1 sequence (P28037 400-902 C707S) with S308C
Kd [1],Kd [2],Compound
11 ± 1.5 µM,–,NC(=O)c1ccc[n+]([C@@H]2O[C@H](COP(=O)(O)OP(=O)(O)OC[C@H]3O[C@@H](n4cnc5c(N)ncnc54)[C@H](OP(=O)(O)O)[C@@H]3O)[C@@H](O)[C@H]2O)c1 [NADP^+]
–,17 ± 0.8 µM,NC(=S)c1ccc[n+]([C@@H]2O[C@H](COP(=O)(O)OP(=O)(O)OC[C@H]3O[C@@H](n4cnc5c(N)ncnc54)[C@H](OP(=O)(O)O)[C@@H]3O)[C@@H](O)[C@H]2O)c1 [thio-NADP^+]
